Some test systems named below: SK-MEL-5 melanoma; OVCAR-5 ovarian; SK-OV-3 ovarian; U251 CNS; SNB-75 CNS; CCRF-CEM leukemia; COLO 205 colon; SF-268 CNS; KM20L2 colon; TK-10 renal; EKVX NSCLC; IGROV1 ovarian; HCC-2998 colon; NCI-H522 lung; MALME-3M melanoma; UACC-62 melanoma; SK-MEL-28 melanoma; SR leukemia; HL-60(TB) leukemia; MDA-MB-435.
What all share (assay): DTP human tumour cell line panel, 48 h

Structures are written as SMILES.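 1) Cells in 96-well plates. 2) Compound, 48 h, 5 concentrations. 3) Linear interpolation between surrounding doses. 4) Unreached endpoint = highest concentration. At the TGI there is no net growth.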

What is called TGI is the concentration giving total growth inhibition. Low readings indicate greater sensitivity of the cells, high ones lower sensitivity of the cells. For `O=C(Nc1ccccc1-c1nc2ccccc2[nH]c1=O)c1ccccc1`, the TGI in the assay on SK-MEL-5 melanoma is > 100 µM; in the assay on OVCAR-5 ovarian, > 100 µM; in the assay with SK-OV-3 ovarian, 40.5 µM; in the assay with U251 CNS, 49.6 µM; in the assay with SNB-75 CNS it was 30.8 µM; in the assay on CCRF-CEM leukemia it was > 100 µM. Moreover, the TGI in the assay with COLO 205 colon is > 100 µM; in the assay on SF-268 CNS it was 64.8 µM; with KM20L2 colon it was > 100 µM; with TK-10 renal, 31.6 µM; in the assay with EKVX NSCLC it was 70.3 µM; in the assay on IGROV1 ovarian, 70.6 µM. Also, the TGI was 33.7 µM with HCC-2998 colon; 46.1 µM in the assay with NCI-H522 lung; 92.7 µM in the assay on MALME-3M melanoma; 75.2 µM in the assay on UACC-62 melanoma; > 100 µM in the assay on SK-MEL-28 melanoma.

As to `C[Si](C)(C)OC1CC(=O)OC1n1cc(F)c(=O)[nH]c1=O` (configuration not stated), the TGI was > 100 µM in the assay on SK-MEL-5 melanoma; > 100 µM in the assay with OVCAR-5 ovarian; > 100 µM in the assay on SK-OV-3 ovarian; > 100 µM in the assay with U251 CNS; > 100 µM with SNB-75 CNS; > 96.4 µM with CCRF-CEM leukemia. In addition, the TGI with COLO 205 colon, in the assay on SF-268 CNS, in the assay on KM20L2 colon, in the assay on TK-10 renal, in the assay on EKVX NSCLC and with IGROV1 ovarian was > 100 µM each time. The TGI was 9.38 µM in the assay with SR leukemia; > 100 µM in the assay on HCC-2998 colon; > 100 µM in the assay with NCI-H522 lung; > 100 µM in the assay on MALME-3M melanoma; > 100 µM in the assay on HL-60(TB) leukemia; > 100 µM in the assay with UACC-62 melanoma. Moreover, the TGI with SK-MEL-28 melanoma is > 100 µM.

`CC1=CCC(O)C=CC(C)C(O)C(C)C=C(C)C(=O)c2c(O)c(C)cc3c2C(=O)C(N)=C(NC(=O)/C=C\C=C/C=CC(C)C(O)CC1=O)C3=O` (configuration not stated): the TGI with SK-MEL-5 melanoma, in the assay with OVCAR-5 ovarian, in the assay with SK-OV-3 ovarian, in the assay on U251 CNS, with SNB-75 CNS and in the assay on CCRF-CEM leukemia was > 100 µM throughout. Also, the TGI with COLO 205 colon, in the assay on SF-268 CNS, in the assay with KM20L2 colon, in the assay on TK-10 renal, in the assay with EKVX NSCLC and in the assay with IGROV1 ovarian was > 100 µM throughout. The TGI is > 100 µM with HCC-2998 colon; 35.3 µM in the assay with NCI-H522 lung; 82.7 µM in the assay with MALME-3M melanoma; 38.6 µM with HL-60(TB) leukemia; > 100 µM with UACC-62 melanoma; > 100 µM in the assay on SK-MEL-28 melanoma.

Regarding `Cc1cc(N(CCC#N)CCC#N)ccc1/C=C(\NC(=O)/C=C/c1ccccc1)C(N)=O`, the TGI with SK-MEL-5 melanoma, in the assay with OVCAR-5 ovarian, with SK-OV-3 ovarian, in the assay with U251 CNS, with SNB-75 CNS and with CCRF-CEM leukemia was > 100 µM throughout. Also, the TGI in the assay with COLO 205 colon, in the assay on SF-268 CNS, in the assay on KM20L2 colon, with TK-10 renal, with EKVX NSCLC and in the assay with IGROV1 ovarian was > 100 µM throughout. The TGI in the assay with HCC-2998 colon, in the assay on NCI-H522 lung, in the assay with MALME-3M melanoma, in the assay with HL-60(TB) leukemia, in the assay on UACC-62 melanoma and with SK-MEL-28 melanoma was > 100 µM each time.

Turning to `O=C1C2C3C=C4c5ccccc5N(c5ccccc5)C4(C2C(=O)N1c1ccc([N+](=O)[O-])cc1)[C@H]1C(=O)N(c2ccc([N+](=O)[O-])cc2)C(=O)[C@@H]31` (some centres not stated), the TGI in the assay with SK-MEL-5 melanoma, in the assay with OVCAR-5 ovarian, with SK-OV-3 ovarian, in the assay on U251 CNS, in the assay with SNB-75 CNS and in the assay with CCRF-CEM leukemia was > 100 µM throughout. Also, the TGI with COLO 205 colon, in the assay on SF-268 CNS, in the assay on KM20L2 colon, in the assay on TK-10 renal, in the assay with EKVX NSCLC and in the assay on IGROV1 ovarian was > 100 µM in each case. The TGI with HCC-2998 colon, in the assay on NCI-H522 lung, with MALME-3M melanoma, in the assay on HL-60(TB) leukemia, in the assay with UACC-62 melanoma and with SK-MEL-28 melanoma was > 100 µM throughout.

For `Nc1nc([O-])c2c(n1)[n+](C1OC(CO)C(O)C1O)cn2CCO` (configuration not stated), the TGI with SK-MEL-5 melanoma, in the assay on OVCAR-5 ovarian, in the assay on SK-OV-3 ovarian, in the assay on U251 CNS, with SNB-75 CNS and in the assay on CCRF-CEM leukemia was > 100 µM in each case. In addition, the TGI with COLO 205 colon, in the assay on SF-268 CNS, with KM20L2 colon, in the assay on TK-10 renal, in the assay with EKVX NSCLC and in the assay with IGROV1 ovarian was > 100 µM each time. Moreover, the TGI in the assay with SR leukemia, with NCI-H522 lung, in the assay with MALME-3M melanoma, in the assay with HL-60(TB) leukemia, in the assay on UACC-62 melanoma and in the assay on SK-MEL-28 melanoma was > 100 µM each time.

Take `Cc1ccc2c(c1)CC1(Cc3ccccc3C1=O)C2=O` (configuration not stated): the TGI with SK-MEL-5 melanoma, with OVCAR-5 ovarian, in the assay with MDA-MB-435, in the assay on SK-OV-3 ovarian, with U251 CNS and in the assay with SNB-75 CNS was > 100 µM in each case. Moreover, the TGI with CCRF-CEM leukemia, with COLO 205 colon, with SF-268 CNS, in the assay on TK-10 renal, in the assay with EKVX NSCLC and in the assay with IGROV1 ovarian was > 100 µM throughout. Further, the TGI in the assay with SR leukemia, with HCC-2998 colon, in the assay with NCI-H522 lung, in the assay with MALME-3M melanoma, in the assay with HL-60(TB) leukemia and with UACC-62 melanoma was > 100 µM in each case. Besides, the TGI in the assay with SK-MEL-28 melanoma was > 100 µM.

Values taken from PubChem BioAssay (NCI).
